Assay results reported in patent publication US20260235546A1, “Methods and Systems for Interrogating Electrochemical Sensors” (The Regents of the University of California, priority 2023, published 2026).
“And” between values parts separate entries of the source, which are not always exact repeats. Identical values can stand only once. Each block holds one molecule with its values, some of them ahead of it.

Tests used:
[1] = FFT-EIS-interrogated EAB sensor in jugular vein, real-time phenylalanine concentration in fasted and non-fasted rats; assay type: in vivo, Sprague-Dawley rats
Method: (§1) All in vivo experiments were performed on male Sprague-Dawley rats (4-5 months old). The rats weighed between 350-500 g and were pair-housed in a standard light cycle room (12:12 regular light cycle with lights on at 8 AM). They were allowed ad libitum access to food and water and the Institutional Animal Care and Use Committee (IACUC) of the University of California at Santa Barbara approved the experimental protocol which adhered to the guidelines given by the NIH Guide for Care and Use of Laboratory Animals.
Prior to the measurement, the rats were anesthetized using 4% isofluorane in a Plexiglas anesthesia chamber. Anesthesia was then maintained via a nose cone for the entire duration of the experiment at a level of 2-3% isofluorane. The neck was shaved and dissected in order to surgically isolate the left and right jugular veins. After isolating the two jugular veins, each one was tied off using sterile 6-0 silk sutures. Prior to the measurement, the wires in the sensor were adjusted such that the counter and working electrode were exposed outside of the 20G catheter into the vein as previously described. A small incision was then made in each vein using spring-loaded microscissors that allowed us to insert the sensor-containing catheter into the right jugular vein and an infusion line into the left jugular vein. Both the sensor and drug infusion catheter were anchored in place using two sterile 6-0 silk sutures. 30 units of heparin were infused through the infusion line immediately after insertion of the sensor and prior to any recordings. To intravenously dose the rats at 30 mg/kg a precalculated volume of 0.05 M vancomycin solution was injected using a syringe pump.
Specifically, after calibrating a phenylalanine-detecting EAB sensor in vitro, FFT-EIS interrogation was used to measure the molecule's concentration in the jugular veins of anesthetized rats with 1.8 s resolution. Doing so, it was observed baseline phenylalanine concentrations of 41±10 μM (the latter reflects one standard deviation) in a fasted animal and 39±6 μM in a non-fasted animal, values in line with previous reports. Upon two intravenous infusions of additional phenylalanine, rapid rises to peak concentrations of 300-400 μM were observed, followed by rapid decays back to baseline in the fasted animal.
Reference is made to FIG. 6. Using FFT-EIS to interrogate phenylalanine-detecting EAB sensors this metabolite has been monitored in situ in the jugulars of live rats with 1.8 s resolution. Reference Is made to panel (A). A fasted animal was infused with two sequential doses of phenylalanine. In both cases, the concentration of free phenylalanine in the blood quickly decayed back to the pre-infusion baseline (41±10 μM, 31±9 μM, and 25±10 μM before injection, after the first injection, and after the final injection, respectively). Reference is made to Panel (B). In contrast, the return to the post-infusion baseline was slower in a non-fasted animal, which is consistent with previous reports regarding phenylalanine homeostasis. Here, the raw data (light points) are smoothed using a 13-s rolling average (darker trace). Concentration decay transients were fitted to a two compartment (i.e., biexponential) model (black traces).

[2] = tested on: phenylalanine-detecting EAB sensor (methylene-blue-modified aptamer); test: FFT-EIS binding curve of phenylalanine-detecting EAB sensor in whole, freshly-collected rat's blood at 37° C
Method: (§2) To functionalize the working electrode the disulfide bond was first reduced in the stock alkanethiol-and-methylene-blue modified aptamer by combining 14 μL of 10 mM tris (2-carboxyethyl) phosphine with 2 μL of 100 μM DNA for 1 h in the dark. The gold electrodes were electrochemically cleaned and roughened with Millipore water and followed by immersion for 1 h in 500 nM reduced DNA in PBS. The electrodes were then transferred to a 10 mM solution of 6-mercapto-1-hexanol in PBS and stored overnight before use.
All electrochemical measurements were performed using an Autolab PGStat128N. The potentiostat was configured in “high stability mode” with a current range of ±1 μA, which affects the filter characteristics. For FFT-EIS measurements, the multi-sin waveform was generated by a DG812 arbitrary waveform generator (Rigol Technologies) and fed into the potentiostat's external voltage input using a BNC connection. The voltage waveform consisted of a superposition of 18 sine waves at logarithmically spaced frequencies ranging from 1 Hz to 1 kHz. The amplitude and phase of each sinusoidal oscillation were optimized for maximum signal-to-noise as discussed in the supporting information of Example 7, and the summed waveform was scaled to have a peak-to-peak amplitude of 25 mV. The potentiostat's native software (NOVA) was used to set the DC bias—the formal potential of methylene blue, as measured by cyclic voltammetry—on top of the AC perturbation. Voltage and current were recorded at 70 kHz using an SDS1202X-E oscilloscope. […] Data recording and processing were controlled by a custom Python program. Further details on the chosen waveform and artefact correction are described in supporting information of Example 7 (FIG. 7, FIG. 9, FIG. 11).
Impedance spectra were fitted to the equivalent circuit model using MEISP 3.0 after each experiment was complete. […]
Reference is made to FIG. 12. […] The endogenous concentration of phenylalanine in the blood (52 μM) was determined e using a fluorescent assay kit. […]

[3] = FFT-EIS-interrogated lactate-detecting EAB sensor, real-time plasma lactate in a living rat; assay type: in vivo, Sprague-Dawley rats; conditions: about 1000 mg/kg sodium lactate intravenously
Method: FFT-EIS can be used to interrogate in vivo EAB sensors to monitor plasma lactate concentrations in a live rat in real time (FIGS. 13A and 13B). Lactate is an important clinical biomarker for sepsis and hypoxia during anesthesia, and lactate levels are useful to monitor sport performances. FFT-EIS is used to characterize the lactate-detecting EAB sensor in undiluted blood held at about 37° C. by stepwise changing the lactate level and measuring the corresponding ket value (FIG. 13A). […] Lactate concentrations can be determined in real time in a living rat by measuring changes in ket when employing the lactate detecting EAB sensor (FIG. 13B). Stable concentrations were measured prior to intravenously infusing about 1000 mg/kg sodium lactate.
The lactate aptamer is modified with a six-carbon thiol and the redox reporter methylene blue. The aptamer was reduced for 1 h in a solution containing about 11.26 μM aptamer and 8.87 mM TCEP and subsequently diluted till 500 nM in a PBS buffer plus 2 mM MgCl2. The intravenous sensors were fed through 20-gauge catheters and used the in vitro sensors as is. To form the lactate-detecting EAB sensor, the aptamer was deposited on the gold electrode by immersing the electrode for 1 h in a 500 nM reduced lactate aptamer solution followed by overnight immersion in 10 mM 6-mercaptohexanol to form a self-assembled monolayer. […]

[4] = biological target: vancomycin-detecting EAB sensor (methylene-blue-modified aptamer); test: FFT-EIS binding curve (ket vs concentration) of vancomycin-detecting EAB sensor in whole bovine blood at 37° C; conditions: ± = estimated 95% confidence intervals, read-out: dissociation constant (KD), Hill-Langmuir isotherm fit of ket
Method: as §2
All electrochemical measurements were performed using an Autolab PGStat128N. The potentiostat was configured in “high stability mode” with a current range of ±1 μA, which affects the filter characteristics. […] The potentiostat's native software (NOVA) was used to set the DC bias—the formal potential of methylene blue, as measured by cyclic voltammetry—on top of the AC perturbation. Voltage and current were recorded at 70 kHz using an SDS1202X-E oscilloscope. […]
Reference is made to FIG. 3. In panel (A) the vancomycin-detecting EAB sensor was immersed in whole bovine blood at 37° C. and challenged with increasing quantities of the target molecule. […]
The impedimetric properties of EAB sensors, which are sensitive to target concentration, can be rapidly measured using FFT-EIS to enable highly-time resolved molecular measurements. […]

[5] = FFT-EIS-interrogated EAB sensor in jugular vein, real-time plasma vancomycin after intravenous infusion; assay type: in vivo, Sprague-Dawley rats; conditions: rat jugular vein
Method: as §1
Prior to the measurement, the rats were anesthetized using 4% isofluorane in a Plexiglas anesthesia chamber. […]
Aptamer-modified gold wire working electrodes were bundled with platinum counter and silver-silver chloride reference electrodes in a 20-gauge catheter (FIG. 4, panel A), and surgically inserted the resulting three-electrode sensor into the right jugular vein of an anesthetized rat. Full impedance spectra (containing 18 frequencies between 1 Hz and 1 kHz, FIG. 9) was then measured every 1.8 second for 2.5 hours. […]
FFT-EIS interrogation of EAB sensors provides a highly-time-resolved window into molecular physiology and pharmacokinetics (FIG. 5, panel A). […] Prior to drug infusion, vancomycin concentrations were measured fluctuating tightly around zero (1.1±1.7 μM). […]

[6] = fasted animal, first injection, ± = 95% confidence intervals
[7] = fasted animal, second injection, ± = 95% confidence intervals

baseline concentration after the final injection ([1]; fasted animal): 25 ± 10 µM
baseline concentration after the first injection ([1]; fasted animal): 31 ± 9 µM
time constant τ1, biexponential decay [1, 6]: 0.2 ± 0.1 min
time constant τ2, biexponential decay [1, 6]: 3.8 ± 0.2 min
time constant τ1, biexponential decay [1, 7]: 1.7 ± 0.1 min
time constant τ2, biexponential decay [1, 7]: 20 ± 2 min
peak concentration after intravenous infusion ([1]; fasted animal, two intravenous infusions): 300 to 400 µM
baseline concentration before injection ([1]; fasted animal, ± = one standard deviation): 41 ± 10 µM
baseline concentration ([1]; non-fasted animal): 39 ± 6 µM
time constant T2, biexponential decay ([1]; non-fasted animal): 35 ± 7 min
time constant τ1, biexponential decay ([1]; non-fasted animal): 3.3 ± 0.1 min
ket,0 (ket in the absence of phenylalanine) ([2]; fitted): 62.9 s⁻¹
ket,max (ket at saturating phenylalanine) ([2]; fitted): 225.8 s⁻¹
Kd ([2]; read-out: dissociation constant KD, Langmuir isotherm fit of ket): 6.89 mM
Compound: N[C@@H](Cc1ccccc1)C(=O)O [phenylalanine]

Compound: CC(O)C(=O)O (stereo not drawn) [lactate]
plasma lactate level course after infusion [3]: gradually returned to the prior baseline

Compound: CN[C@H](CC(C)C)C(=O)N[C@H]1C(=O)N[C@@H](CC(N)=O)C(=O)N[C@H]2C(=O)N[C@H]3C(=O)N[C@H](C(=O)N[C@H](C(=O)O)c4cc(O)cc(O)c4-c4cc3ccc4O)[C@H](O)c3ccc(c(Cl)c3)Oc3cc2cc(c3O[C@@H]2O[C@H](CO)[C@@H](O)[C@H](O)[C@H]2O[C@H]2C[C@](C)(N)[C@H](O)[C@H](C)O2)Oc2ccc(cc2Cl)[C@H]1O [vancomycin]
Kd [4]: 0.144 ± 0.031 mM
time constant of monoexponential concentration decay ([5]; after 30 mg/kg intravenous infusion, three separate animals, ± = 95% confidence intervals): 33.1 ± 0.5 min and 37.3 ± 0.7 min and 47.4 ± 1.3 min
measured concentration prior to drug infusion ([5]; pre-infusion): 1.1 ± 1.7 µM
